Paper PMC7024345 (Molecules, 2020)
Several values for one entry are separate records, joined by “and”; a condition that tells them apart may be missing. Equal entries are not always repeated. Where two headings read alike, the source gives them in different places.

Experiments:
[1] = biological target: T1, eqBChE (BChE from equine serum) (Equus caballus, UniProt P81908); assay: biochemical
T1 construct: BChE from equine serum (eqBChE); purchased Sigma-Aldrich (St. Louis, MO, USA); host or cells: equine serum
T1 sequence (P81908 whole entry): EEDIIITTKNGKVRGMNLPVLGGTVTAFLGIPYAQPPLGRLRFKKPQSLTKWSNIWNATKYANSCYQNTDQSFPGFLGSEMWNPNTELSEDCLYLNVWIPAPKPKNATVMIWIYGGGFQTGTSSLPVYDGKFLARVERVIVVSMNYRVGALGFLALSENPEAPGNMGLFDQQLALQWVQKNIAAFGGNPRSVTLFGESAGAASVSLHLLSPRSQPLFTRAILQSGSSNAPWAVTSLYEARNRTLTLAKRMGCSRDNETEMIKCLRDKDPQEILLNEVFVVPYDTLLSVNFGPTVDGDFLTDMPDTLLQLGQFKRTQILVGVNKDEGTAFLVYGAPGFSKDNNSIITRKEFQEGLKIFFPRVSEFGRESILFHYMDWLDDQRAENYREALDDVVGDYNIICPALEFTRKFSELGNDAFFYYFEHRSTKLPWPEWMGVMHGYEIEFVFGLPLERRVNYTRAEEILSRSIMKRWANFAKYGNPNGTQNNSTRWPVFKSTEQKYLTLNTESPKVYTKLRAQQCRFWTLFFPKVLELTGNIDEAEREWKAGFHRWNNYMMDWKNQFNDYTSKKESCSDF
Procedure: (§1) Acetylcholinesterase and butyrylcholinesterase inhibitory activities of the compounds under study were evaluated spectrophotometrically following Ellman’s method using AChE from electrophorus electricus (eeAChE) and BChE from equine serum (eqBChE). The lyophilized enzymes were dissolved in sodium phosphate buffer (0.25 M, pH 7.4) to make a stock solution of eeAChE (1000 U/mL) or eqBChE (25 U/mL). […] Briefly, in each well, 100 μL of phosphate buffer, 40 μL of DTNB, 20 μL of the tested compounds (100 µM solution dissolved in 0.1% DMSO and phosphate buffer) and 20 μL of cholinesterase solution were pre-incubated in a 96-well microplate for 5 min at 30 °C. […] The rate of the reaction before adding the enzyme was subtracted from that obtained after enzyme addition in order to correct for spontaneous hydrolysis of substrate.

[2] = biological target: T2, eeAChE (AChE from electrophorus electricus) (Electrophorus electricus, UniProt O42275); assay: biochemical; type: biochemical; settings: for IC50: Ellman's method, ATCI substrate, 30 °C; for fold enhancement of eeAChE inhibitory activity: 10 carbon linker compound compared to 6 carbon linker analogue (compounds 3 and 4)
T2 construct: purchased Sigma-Aldrich (St. Louis, MO, USA)
T2 sequence (O42275 24-633): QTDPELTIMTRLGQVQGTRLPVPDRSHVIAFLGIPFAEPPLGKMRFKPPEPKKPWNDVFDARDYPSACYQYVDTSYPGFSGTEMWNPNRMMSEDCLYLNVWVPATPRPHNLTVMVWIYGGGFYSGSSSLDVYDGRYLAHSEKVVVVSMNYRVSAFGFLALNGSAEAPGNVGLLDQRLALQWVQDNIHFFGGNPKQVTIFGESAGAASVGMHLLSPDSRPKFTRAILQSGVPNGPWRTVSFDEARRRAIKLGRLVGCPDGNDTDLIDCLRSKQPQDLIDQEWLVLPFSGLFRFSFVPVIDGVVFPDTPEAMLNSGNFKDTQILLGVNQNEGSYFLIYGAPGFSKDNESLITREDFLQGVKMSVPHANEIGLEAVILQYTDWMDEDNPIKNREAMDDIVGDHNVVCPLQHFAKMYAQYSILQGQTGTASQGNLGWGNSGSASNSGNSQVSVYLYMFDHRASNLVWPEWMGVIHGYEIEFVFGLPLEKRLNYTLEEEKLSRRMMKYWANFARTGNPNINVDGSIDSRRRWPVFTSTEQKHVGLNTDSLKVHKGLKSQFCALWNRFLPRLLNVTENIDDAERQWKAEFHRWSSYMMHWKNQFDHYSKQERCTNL
Procedure: as §1

[3] = Chemical stability observation; type: physicochemical
From the text: Accordingly, these two compounds were selected for the study as protective agents against glutamate, iron(III) and Aβ42.

[4] = tested on: differentiated SH-SY5Y cells; assay: Neuroprotection against iron(III), MTT reduction; type: cell-based, human; settings: mean ± SD; for MTT reduction: 30 min pre-treatment, then iron(III) 1 mM 24 h; for MTT reduction, aggressor alone: iron(III) 1 mM, 24 h
Procedure: (§2) After 30 min of pre-treatment with Compounds 7 (10 and 50 µM) and 11 (10 µM), the cells were exposed to different aggressors, described above, for 24 h.
(§3) Figure 6 Evaluation of the protective effects of Compounds 7 (10 and 50 µM) and 11 (10 µM) in SH-SY5Y cells against glutamate (16 mM, A), iron(III) (1 mM, B) and Aβ42 (25 µM, C) as oxidative stress inducers. The cells were pre-treated with antioxidants for 30 min and exposed to the aggressors for 24 h. The data are expressed as the means of three independent experiments together with the standard deviation (Mean ± SD). Statistical comparisons were estimated using the nonparametric method of Kruskal–Wallis [one-way ANOVA on ranks] followed by Dunn’s post hoc test (A,B) and using the parametric method of one-way analysis of variance (ANOVA) followed by Dunnett’s multiple comparison test (C, F = 364.2) (Supplementary Table S2). In all cases, p values lower than 0.05 were considered significant (^## p < 0.05, ^#### p < 0.0001 vs. control data; ** p < 0.01, *** p < 0.001, **** p < 0.0001 vs. aggressor values).
(§4) Differentiated human neuroblastoma cells were routinely cultured into […] flasks and maintained in DMEM high glucose (4.5 g/L glucose), supplemented with 10% heat-inactivated FBS (v/v), 1% NEAA (v/v) and 1% penicillin/streptomycin (v/v). The cell cultures were maintained at 37 °C in a humidified 5% CO2–95% air atmosphere and passaged once a week by trypsinization (0.25% trypsin). Neuroblastoma SH-SY5Y cells were seeded onto 96 well plates at a density of 25,000 cells/cm^2 in cell culture medium with trans-retinoic acid (RA, final concentration of 10 µM) and incubated for three days at 37 °C in a humidified, 5% CO2–95% air atmosphere. Then, the medium was supplemented with 12-O-tetradecanoylphorbol-13-acetate (TPA, final concentration of 80 nM), and cells were incubated for three days. Stock solutions of RA (10 mM) and TPA (160 µM) were prepared in DMSO. To avoid phenotypic changes, the cells used for all experiments were taken between the 19th and 28th passages.
(§5) The neuroprotective efficacy of mitochondriotropic antioxidants 7 and 11 was evaluated in a cell-based assay against diverse oxidative stress inducers. Briefly, SH-SY5Y cells were pre-treated with Compounds 7 and 11 followed by incubation with the well-described aggressors that play a role in AD progression, namely Aβ-amyloid 1-42 (Aβ42), ferric nitrilotriacetate (FeNTA) and glutamic acid. Differentiated SH-SY5Y cells were pre-treated with the test compounds 7 (10 and 50 µM) and 11 (10 µM) for 30 min. Then, a culture medium containing Aβ42 (25 µM), iron(III) (1 mM) or glutamic acid (16 mM) was added, and cells were incubated for additional 24 h. A negative control (cells treated with culture medium containing DMSO 0.1%) and a positive control (cells treated with culture medium containing DMSO 0.1%, followed by treatment with aggressors) were also included. Cell viability was estimated using the MTT reduction assay, as described by Fernandes et al..

[5] = tested on: differentiated SH-SY5Y cells; assay: Neuroprotection against glutamate, MTT reduction; type: cell-based, human; settings: mean ± SD; for MTT reduction: 30 min pre-treatment, then glutamate 16 mM 24 h; for MTT reduction, aggressor alone: glutamate 16 mM, 24 h
Procedure: as §2, §3, §4, §5

[6] = tested on: differentiated SH-SY5Y cells; assay: Neuroprotection against Aβ42, MTT reduction; type: cell-based, human; settings: mean ± SD; for MTT reduction: 30 min pre-treatment, then Aβ42 25 µM 24 h; for MTT reduction, aggressor alone: Aβ42 25 µM, 24 h
Procedure: as §2, §3, §4, §5

SH-SY5Y cells = tested on: SH-SY5Y cells; parameters: method as in PMID 30784884; settings: at 50 µM; cited from earlier work
[7] = Ellman's method, BTCI substrate, 30 °C, read-out: IC50 eqBChE, mean (CI 95%)
[8] = read-out: IC50 eeAChE, mean (CI 95%)

| Compound | SI: selectivity index = IC50 (eeAChE)/IC50 (eqBChE) [1] | IC50 [1, 7] [µM] | IC50 [2, 8] [µM] | IC50 [1] [µM] | IC50 ([2]; IC50 eeAChE, mean (CI 95%)) [µM] | also measured |
| --- | --- | --- | --- | --- | --- | --- |
| O=C(/C=C/c1cc(O)c(O)c(O)c1)NCCCCCC[P+](c1ccccc1)(c1ccccc1)c1ccccc1 [Compound 1] | 7.2 | 0.41 | 2.94 |  |  |  |
| O=C(CCc1cc(O)c(O)c(O)c1)NCCCCCC[P+](c1ccccc1)(c1ccccc1)c1ccccc1 [Compound 2] | 2.1 |  |  | 3.16 | 6.76 |  |
| O=C(Cc1cc(O)c(O)c(O)c1)NCCCCCC[P+](c1ccccc1)(c1ccccc1)c1ccccc1 [Compound 3] | 2.0 |  |  | 4.52 | 8.98 |  |
| O=C(/C=C/c1ccc(O)c(O)c1)NCCCCCC[P+](c1ccccc1)(c1ccccc1)c1ccccc1 [Compound 4] | 52.7 | 0.12 | 6.32 |  |  |  |
| O=C(CCc1ccc(O)c(O)c1)NCCCCCC[P+](c1ccccc1)(c1ccccc1)c1ccccc1 [Compound 5] | 0.4 |  |  | 2.52 | 1.08 | chemical stability [3]: showed chemical instability |
| O=C(Cc1ccc(O)c(O)c1)NCCCCCC[P+](c1ccccc1)(c1ccccc1)c1ccccc1 [Compound 6] | 4.2 |  |  | 0.93 | 3.88 |  |
| O=C(/C=C/c1cc(O)c(O)c(O)c1)NCCCCCCCCCC[P+](c1ccccc1)(c1ccccc1)c1ccccc1 [Compound 7] | 30.8 | 0.11 | 3.39 |  |  | MTT reduction ([4]; compound 10 µM): 75.90 ± 5.25 % ctrl; MTT reduction ([4]; compound 50 µM): 80.22 ± 12.76 % ctrl and 80.2 % ctrl; MTT reduction ([5]; compound 10 µM): 84.24 ± 5.32 % ctrl; MTT reduction ([5]; compound 50 µM): 81.90 ± 2.81 % ctrl and 81.9 % ctrl; MTT reduction ([6]; compound 10 µM): 72.55 ± 2.67 % ctrl; MTT reduction ([6]; compound 50 µM): 68.81 ± 0.70 % ctrl and 68.1 % ctrl |
| O=C(CCc1cc(O)c(O)c(O)c1)NCCCCCCCCCC[P+](c1ccccc1)(c1ccccc1)c1ccccc1 [Compound 8] | 7.2 |  |  | 0.8 | 5.75 |  |
| O=C(Cc1cc(O)c(O)c(O)c1)NCCCCCCCCCC[P+](c1ccccc1)(c1ccccc1)c1ccccc1 [Compound 9] |  |  |  | 0.53 | 3.35 | fold enhancement of eeAChE inhibitory activity [2]: 3 fold |
| O=C(/C=C/c1ccc(O)c(O)c1)NCCCCCCCCCC[P+](c1ccccc1)(c1ccccc1)c1ccccc1 [Compound 10] | 23.9 | 0.15 | 3.59 |  |  | fold enhancement of eeAChE inhibitory activity [2]: 2 fold |
| O=C(CCc1ccc(O)c(O)c1)NCCCCCCCCCC[P+](c1ccccc1)(c1ccccc1)c1ccccc1 [Compound 11] | 4.9 | 0.32 | 1.59 |  |  | cytotoxicity (SH-SY5Y cells): presented cytotoxicity; MTT reduction ([4]; compound 10 µM): 82.87 ± 7.87 % ctrl and 82.9 % ctrl; MTT reduction ([5]; compound 10 µM): 74.97 ± 6.87 % ctrl; MTT reduction ([6]; compound 10 µM): 66.43 ± 3.45 % ctrl and 66.4 % ctrl |
| O=C(Cc1ccc(O)c(O)c1)NCCCCCCCCCC[P+](c1ccccc1)(c1ccccc1)c1ccccc1 [Compound 12] | 10.2 |  |  | 0.24 | 2.44 |  |
| N[C@@H](CCC(=O)O)C(=O)O [Glutamate, L-glutamic acid, reference compound] |  |  |  |  |  | MTT reduction, aggressor alone [5]: 72.68 ± 2.81 % ctrl; MTT reduction, aggressor alone ([5]; listed as glutamate): about 72.7 % ctrl |
| O=C([O-])CN(CC(=O)[O-])CC(=O)[O-].[Fe+3] [Iron(III), ferric nitrilotriacetate, reference compound] |  |  |  |  |  | MTT reduction, aggressor alone [4]: 63.06 ± 6.25 % ctrl; MTT reduction, aggressor alone ([4]; listed as iron(III)): ~63.1 % ctrl |
| Aβ-amyloid (1–42) [reference compound] |  |  |  |  |  | MTT reduction, aggressor alone [6]: 58.73 ± 2.76 % ctrl; MTT reduction, aggressor alone ([6]; listed as Aβ42): ~58.7 % ctrl |
